According to patent publication US20250000874A1, “BACTERIAL METABOLITES AND THEIR USE IN REDUCING INFLAMMATION” (LOYOLA UNIVERSITY OF CHICAGO, priority 2023, published 2025):
Entries after “also recorded” stand apart in the source; their conditions may differ.

Tests used:
Raw 264.7 Cells = test: NC on TNFα release in Raw 264.7 cells in response to TLR agonists; type: cell-based, mouse; settings: 50 μM NC 18 hours
Description: FIG. 27A and FIG. 27B. Metabolite NC on TNFα release in response to LPS in human and murine macrophages in vitro. Macrophages were plated at a uniform density of 0.2×10^6 cells/mL in 24 well plates. These cells (FIG. 27A) were allowed to adhere, or, in the case of THP-1 cells FIG. 27B), differentiate using PMA. They were then treated for 18 hours with 50 μM of metabolite NC before being stimulated with 0.1 ug of LPS-EK. Supernatant was collected between 4-6 hours after addition of LPS and debris was removed via centrifugation at 1250 rpm for 5 minutes. TNFα was quantified in the supernatant using sandwich ELISA with standards of known concentrations.
FIG. 28A and FIG. 28B. Metabolite NC on TNFα release in macrophages in response to various TLR agonists. Raw 264.7 cells (FIG. 28A) and THP-1 FIG. 28B) cells were plated at a uniform density of 0.2×10^6 cells per mL and stimulated with various TLR agonists: Pam3CSK4, Poly I:C, LPS, Fla, FSL-1, imiquimod (ImiQ), and ODN-2006. NC reduced TNFα release in response to TLR3 (p<0.0001 via student's t-test for both Raw 264.7 cells and THP-1 cells) and TLR4 agonists in both cell lines.
To investigate the effects of compound NC, macrophages were stimulated with LPS, an endotoxin associated with gram-negative bacteria. Human and murine macrophage-like cells (THP-1 cells and Raw 264.7 cells, respectively) were plated in 24 well plates at a uniform density of 0.2×10^6 cells/mL. Following 18 hours of pretreatment with 50 μM metabolite NC, they were stimulated with 10 μg/mL of LPS. After 4-6 hours, supernatant was collected and TNFα was quantified using sandwich ELISA. NC reduces TNFα release from both THP-1 and Raw 264.7 macrophage-like cells in response to TLR4 agonist LPS in vitro.
Metabolite NC reduces inflammation in response to TLR4 agonist LPS. To further investigate the specificity of NC's action in TLR signaling, Raw 264.7 (FIG. 28A) and THP-1 (FIG. 28B) cells were once again plated at a uniform density of 0.2×10^6 cells/mL, treated with 50 μM metabolite NC for 18 hours, and stimulated with agonists for TLR1/2, TLR3, TLR4, TLR5, TLR6/2, TLR7 and TLR9. After 4-6 hours, supernatant was collected and TNFα was quantified via sandwich ELISA.

THP-1 cells = test: NC on TNFα production by THP-1s in response to TLR agonists (Example 7); type: cell-based, human
Description: FIG. 32. NC Reduces TNFα Response to Toll 3 Agonist. Macrophages were cultured at a uniform density and allowed to adhere (in the case of BMDMs) or differentiate with PMA (in the case of THP-1s). macrophages were then incubated overnight in NC at a concentration of 50 uM at 37° C. The following day, the BMDMs were stimulated with P(I:C) at 50 ug/mL, 100 ug/mL, or 200 ug/mL for four hours and the THP-1s were stimulated at 200 […]. Supernatants were collected and TNFα concentrations were determined via ELISA.
FIG. 34. TNFα production from THP-1 stimulation. Thp-1s plated at uniform density and incubated in PMA to differentiate and treated with NC overnight. The following day, cells were then treated with FSL at a concentration of 20 ng/ml and 50 ng/ml. After 4 hours, supernatant was collected and the concentration of TNFα was determined via ELISA.
Bone marrow derived macrophages were collected from adult mice (6-8 weeks old). Femurs were obtained and cut with scissors. The connecting muscles were removed and the bones were flushed with PBS. PBS was collected and cells were counted and adjusted to the desired concentrations. Cells were then plated in DMEM supplemented with Macrophage Colony Stimulating Factor (M-CSF) at 10 ng/ml. […] After 7 days the cells were ready for use. […]
Once ready, macrophages were then incubated with NC at a concentration of 50 uM overnight. […] Samples were treated for 4 hours and then Supernatant was then collected and the concentration of TNFα was then determined via the commercially available ELISA MAX Deluxe kit (Biolegend), with measurements reported in pg/mL.
To investigate the effects NC, macrophages were stimulated in vitro with various TLR agonists, and the production of cytokines was measured via ELISA. […] After 4 hours, supernatant was collected and the concentration of TNFα was determined via ELISA.
Further investigation of NC's impact on TLR signaling involved treating BMDMs with the TLR 4 agonist LPS. […] After 4 hours supernatant was collected and concentration of TNFα was measured via ELISA. […]

macrophages = test: NC on other TLR pathways, macrophages (Example 7); type: cell-based; settings: PAM3CSK4, Flagellin, Imiquimod, ODN2006; various concentrations
Description: Once ready, macrophages were then incubated with NC at a concentration of 50 uM overnight. The following day they were treated with P(I:C) at 50 ug/mL, 100 ug/mL, or 200 ug/mL, with LPS at 1 ng/ml or 10 ng/ml, or FSL at a concentration of 20 ng/ml or 50 ng/mL. Samples were treated for 4 hours and then Supernatant was then collected and the concentration of TNFα was then determined via the commercially available ELISA MAX Deluxe kit (Biolegend), with measurements reported in pg/mL.
Further investigation of NC's impact on TLR signaling involved treating BMDMs with the TLR 4 agonist LPS. Following overnight treatment with NC cells were treated with LPS at a concentration of 1 ng/ml and 10 ng/ml. After 4 hours supernatant was collected and concentration of TNFα was measured via ELISA. […] Additionally, we explored NCs effects on other TLR agonists. […] We investigated NCs effects on various other TLR pathways including: ½ (PAM3CSK4), TLR 5 (Flagellin), TLR 7 (Imiquimod), and TLR 9 (ODN2006).

## CCCCCCCCCCCCCCCC(=O)N[C@@H](C(=O)O)[C@H](C)O [NC, N-Palmitoyl-D-Threonine]
Raw 264.7 Cells; 4-6 hours, ELISA
  TNFα release in response to TLR3 agonist Poly I:C: reduced
Raw 264.7 Cells; LPS, 4-6 hours, ELISA
  TNFα release in response to TLR4 agonist LPS: reduced; also recorded: significantly less
Raw 264.7 Cells; unstimulated
  TNFα release in the absence of LPS stimulation: did not increase; also recorded: does not increase
Raw 264.7 Cells; TLR1/2, TLR5, TLR6/2, TLR7, TLR9 agonists
  TNFα release in response to other TLR agonists: did not significantly reduce
THP-1 cells; NC 50 μM overnight, Poly (I:C) 200 mg/ml or 400 mg/mL, 4 hours
  production and secretion of TNFα: reduced
THP-1 cells; NC alone, 50 μM overnight
  production of TNFα: not found to increase
THP-1 cells; NC overnight, FSL 20 ng/ml and 50 ng/ml, 4 hours
  TNFα production in response to TLR 2/6 agonist FSL-1: exhibited inhibitory effects
macrophages
  cytokine production, other TLR pathways: did not exhibit any significant inhibitory effects
